Laboratory results: patent US10022372B2, “Caveolin-1 related methods for treating glioblastoma with temozolomide” (THOMAS JEFFERSON UNIVERSITY, priority 2013, dated 2018)

Columns and labels:
[1] = tested on: Cav-1 overexpressing U-87MG cells (LV105 Cav-1); assay: Annexin V / propidium iodide flow cytometry of TMZ-treated U-87MG cells; assay type: cell-based, human
Procedure: FIG. 5. […] Each group is normalized to its own DMSO control (*p<0.05 and **p<0.01 vs internal DMSO control, \p<0.01 vs TMZ treated LV105 control, n=3 per group).
U-87MG cells (50,000/well) were plated in 12-well tissue culture dishes and allowed to attach overnight prior to changing their medium into complete EMEM containing either 500 μM TMZ or DMSO control and culturing them for an additional 72 hours. Cells were then trypsinized, centrifuged at 300×g for 5 min and resuspended in binding buffer with APC-conjugated anti-Annexin V antibody (BP Biosciences) and 0.33 μg/ml Propidium Iodide (PI, KPL, Gaithersburg, Md.). All samples were run on a BD FACSCalibur flow cytometer (BD Biosciences). Cells were quantified according to staining as follows: viable (Annexin V negative, PI negative), early apoptotic (Annexin V positive, PI negative), late apoptotic (Annexin V positive, PI positive), and dead (Annexin V negative, PI positive).

[2] = cited from earlier work
[3] = tested on: three different GBM-derived cell lines; conditions: in vitro administration, Boyden-chamber assay; cited from earlier work

## Cn1nnc2c(C(N)=O)ncn2c1=O [temozolomide, 3,4-dihydro-3-methyl-4-oxoimidazo[5,1-d]-αs-tetrazine-8-carboxamide]
[1]; Cav-1 overexpressing U-87MG cells, 500 μM, 72 hours, p<0.01
  increase in early apoptotic cells compared to TMZ-treated LV105 control cells: > 400%
[1]; Homo sapiens, U-87 MG, 72 h, read-out: reduction in cell viability compared to TMZ treated LV105 control cells
  cytotoxicity at 500 µM: 5.5%
[2]; pH <5
  stability at acidic pH: stable
[2]; pH >7
  stability at pH>7: labile

B1: full length Cav-1: full length Caveolin-1 protein administered in vitro (protein, UniProt Q03135 1-178, looked up)
chain: MSGGKYVDSEGHLYTVPIREQGNIYKPNNKAMADELSEKQVYDAHTKEIDLVNRDPKHLNDDVVKIDFEDVIAEPEGTHSFDGIWKASFTTFTVTKYWFYRLLSALFGIPMALIWGIYFAILSFLHIWAVVPCIKSFLIEIQCISRVYSIYVHTVCDPLFEAVGKIFSNVRINLQKEI
modifications: full-length
notes: full length Caveolin-1 protein administered in vitro
[3]
  invasion: prevented invasion
